Experimental data published in patent publication US20250188040A1, “PHARMACEUTICAL COMPOSITIONS COMPRISING WRN HELICASE INHIBITORS” (Vividion Therapeutics, Inc., priority 2022, published 2025).
Read-outs that look alike come from different tables or passages of the source.

Key:
WRN C727 [1] = target: T1, WRN C727 (Homo sapiens, UniProt Q14191); assay: Target engagement, in situ (cell), OCI-AML2; type: cell-based; conditions: OCI-AML2 cells, read-out: OCI-AML2 WRN C727 TE50 in situ (cell)
T1 construct: endogenous in cells; host or cells: OCI-AML2
Procedure: Cells or cell lysates were treated with a dose response of compound followed by probe treatment, which labels solvent exposed cysteines. Proteins were enzymatically digested with trypsin and probe-labelled peptides were enriched with streptavidin. Isolated peptides were then separated using reversed-phase liquid chromatography on a C18 column (Dionex Ultimated 3000 nano-LC, Thermo). Peptides were analyzed by parallel reaction monitoring mass spectrometry (Exploris 120, Thermo).
Target engagement (%) is calculated relative to DMSO treated control samples.

WRN C727 [2] = target: T1, WRN C727; assay: Target engagement, in vitro (lysate), OCI-AML2; type: binding; conditions: read-out: OCI-AML2 WRN C727 TE50 in vitro (lysate)
In short: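 OCI-AML2 intact cells or lysates dosed with compound, then a cysteine-reactive probe; after trypsin digestion, probe-labelled peptides were streptavidin-enriched and quantified by nano-LC parallel reaction monitoring MS. Engagement (%) relative to DMSO controls.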

SW480 cells = assay: Cell growth assay (CellTiter-Glo 2.0), SW480 MSS cell line; conditions: Homo sapiens, SW480, 120 h, read-out: Cell Growth Inhibition GI50 SW480
Procedure: (§1) The effects of compound on cellular viability were determined using the CellTiter-Glo® 2.0 Luminescent Cell Viability Assay (Promega, Madison, WI).
(§2) SW480 cells were seeded at 1,000 cells per well in Eagle's Minimum Essential Medium (EMEM) with 10% FBS. Both cell lines were seeded in a volume of 50 μL medium per well. […] The concentration range was adjusted as needed for compounds of different potencies. The cells treated with compounds were incubated for 5 days at 37° C. in 5% CO2. […] The plate was then read on a Clariostar plate reader (BMG Labtech, Cary, NC) in luminescence mode. The previously measured baseline cell viability was subtracted from the luminescence value of each well, and cell viability (% of DMSO) was plotted as a function of log compound concentration. The EC50 was then calculated for each compound using Dotmatics Software (San Diego, CA).

HCT 116 cells = assay: Cell growth assay (CellTiter-Glo 2.0), HCT 116 MSI-H cell line; conditions: Homo sapiens, HCT-116, 120 h, read-out: Cell Growth Inhibition GI50 HCT-116
Procedure: as §1, §2

[3] = target: hWRN(519-1227)_C-H3CV-GFP-10His (Homo sapiens, UniProt Q14191); assay: Helicase Assay for WRN Inhibition (ATP-dependent, fluorescence based)
[4] = WRN Helicase IC50, 30 min preincubation with ATP, 30 min reaction

T1 sequence (Q14191 whole entry): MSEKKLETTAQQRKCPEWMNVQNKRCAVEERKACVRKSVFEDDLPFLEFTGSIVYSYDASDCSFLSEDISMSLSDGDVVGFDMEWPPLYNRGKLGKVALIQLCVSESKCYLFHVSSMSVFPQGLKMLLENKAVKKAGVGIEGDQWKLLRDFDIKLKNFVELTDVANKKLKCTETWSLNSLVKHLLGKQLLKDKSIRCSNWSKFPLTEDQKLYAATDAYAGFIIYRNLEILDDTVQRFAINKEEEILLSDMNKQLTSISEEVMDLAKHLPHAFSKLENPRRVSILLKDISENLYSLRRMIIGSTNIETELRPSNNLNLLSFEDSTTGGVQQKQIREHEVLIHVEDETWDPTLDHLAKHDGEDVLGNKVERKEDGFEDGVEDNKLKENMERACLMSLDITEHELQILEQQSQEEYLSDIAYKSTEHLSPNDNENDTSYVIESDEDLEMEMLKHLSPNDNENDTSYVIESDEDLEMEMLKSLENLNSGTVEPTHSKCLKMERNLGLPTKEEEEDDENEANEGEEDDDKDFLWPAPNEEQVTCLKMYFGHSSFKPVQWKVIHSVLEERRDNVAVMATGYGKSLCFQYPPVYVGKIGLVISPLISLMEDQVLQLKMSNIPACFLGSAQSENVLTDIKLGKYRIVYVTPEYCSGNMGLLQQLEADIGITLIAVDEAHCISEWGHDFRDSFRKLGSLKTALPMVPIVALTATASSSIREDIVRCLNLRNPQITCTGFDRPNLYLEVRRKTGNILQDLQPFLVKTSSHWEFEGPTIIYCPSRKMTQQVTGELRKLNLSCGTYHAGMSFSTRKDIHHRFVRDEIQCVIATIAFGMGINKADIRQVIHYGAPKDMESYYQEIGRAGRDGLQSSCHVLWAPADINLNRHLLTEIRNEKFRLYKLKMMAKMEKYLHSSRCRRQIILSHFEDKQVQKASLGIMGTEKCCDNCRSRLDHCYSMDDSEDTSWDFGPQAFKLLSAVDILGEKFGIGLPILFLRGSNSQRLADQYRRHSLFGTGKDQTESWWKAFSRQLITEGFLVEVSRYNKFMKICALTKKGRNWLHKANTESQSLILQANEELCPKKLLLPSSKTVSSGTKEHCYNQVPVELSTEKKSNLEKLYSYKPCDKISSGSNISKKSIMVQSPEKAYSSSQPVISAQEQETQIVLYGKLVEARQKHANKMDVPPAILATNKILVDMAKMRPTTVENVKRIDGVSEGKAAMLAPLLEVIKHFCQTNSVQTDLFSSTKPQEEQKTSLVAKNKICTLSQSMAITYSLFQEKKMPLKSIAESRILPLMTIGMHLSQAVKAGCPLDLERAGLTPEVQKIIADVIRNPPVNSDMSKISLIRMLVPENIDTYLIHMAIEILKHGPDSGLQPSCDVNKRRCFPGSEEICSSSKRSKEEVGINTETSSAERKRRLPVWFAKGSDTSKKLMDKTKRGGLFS
Sequence of hWRN(519-1227)_C-H3CV-GFP-10His (Q14191 519-1227): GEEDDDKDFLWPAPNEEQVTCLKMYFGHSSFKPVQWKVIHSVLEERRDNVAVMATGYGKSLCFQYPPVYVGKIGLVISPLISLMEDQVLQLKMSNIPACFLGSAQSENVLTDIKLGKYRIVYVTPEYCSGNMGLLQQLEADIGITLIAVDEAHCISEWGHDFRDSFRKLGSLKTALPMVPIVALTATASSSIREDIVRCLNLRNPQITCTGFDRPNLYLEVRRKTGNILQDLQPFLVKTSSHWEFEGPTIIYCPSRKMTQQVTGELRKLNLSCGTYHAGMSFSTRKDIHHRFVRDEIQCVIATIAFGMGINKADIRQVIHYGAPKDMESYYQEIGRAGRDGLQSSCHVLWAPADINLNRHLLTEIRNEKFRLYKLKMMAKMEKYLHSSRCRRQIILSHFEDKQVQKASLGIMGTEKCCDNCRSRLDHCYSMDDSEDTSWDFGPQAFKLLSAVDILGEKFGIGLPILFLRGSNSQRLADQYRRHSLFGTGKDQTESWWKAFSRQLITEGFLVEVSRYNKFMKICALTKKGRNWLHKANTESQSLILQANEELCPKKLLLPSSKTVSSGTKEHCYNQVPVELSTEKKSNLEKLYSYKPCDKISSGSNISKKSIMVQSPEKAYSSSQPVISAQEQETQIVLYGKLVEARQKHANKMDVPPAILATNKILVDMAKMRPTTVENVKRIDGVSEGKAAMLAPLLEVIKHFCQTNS

SMILES | IC50 (WRN C727 [1]) | IC50 (WRN C727 [2]) | GI50 (SW480 cells) | GI50 (HCT 116 cells) | IC50 [3, 4] | IC50 [3]
CC(C)(C)c1ncc(C(=O)NC/C=C/S(C)(=O)=O)c(Oc2ccccc2)n1 [Example 56, (E)-2-(tert-butyl)-N-(3-(methylsulfonyl)allyl)-4-phenoxypyrimidine-5-carboxamide] | 430 nM | 4900 nM | 10600 nM | 378 nM | 842 nM | 
CC(C)(C)c1ncc(C(=O)N[C@H](/C=C/S(C)(=O)=O)C2CC2)c(Oc2ccccc2)n1 [Example 58, (S,E)-2-(tert-butyl)-N-(1-cyclopropyl-3-(methylsulfonyl)allyl)-4-phenoxypyrimidine-5-carboxamide] | 16 nM | 448 nM | 8730 nM | 23.5 nM | 57.7 nM | 
C[C@@H](/C=C/S(C)(=O)=O)NC(=O)c1cnc(C2CCCCC2)nc1Oc1ccccc1 [Example 77, (S,E)-2-cyclohexyl-N-(4-(methylsulfonyl)but-3-en-2-yl)-4-phenoxypyrimidine-5-carboxamide] | 1140 nM | 26000 nM | > 5000 nM | 430 nM | 1500 nM | 
CS(=O)(=O)/C=C/[C@@H](NC(=O)c1cnc(C(F)(F)C(F)(F)F)nc1Oc1ccccc1)C1CC1 [Example 84, (S,E)-N-(1-cyclopropyl-3-(methylsulfonyl)allyl)-2-(perfluoroethyl)-4-phenoxypyrimidine-5-carboxamide] | 16 nM | 200 nM | 8780 nM | 51.1 nM | 80 nM | 
CS(=O)(=O)/C=C/[C@@H](NC(=O)c1cnc(C2(F)CC2)nc1Oc1ccccc1)C1CC1 [Example 100, (S,E)-N-(1-cyclopropyl-3-(methylsulfonyl)allyl)-2-(1-fluorocyclopropyl)-4-phenoxypyrimidine-5-carboxamide] | 150 nM | 853 nM | 24400 nM | 66 nM | 174 nM | 
CS(=O)(=O)/C=C/[C@@H](NC(=O)c1cnc(C2(C(F)(F)F)CC2)nc1Oc1ccccc1)C1CC1 [Example 102, (S,E)-N-(1-cyclopropyl-3-(methylsulfonyl)allyl)-4-phenoxy-2-(1-(trifluoromethyl)cyclopropyl)pyrimidine-5-carboxamide] | 160 nM | 530 nM | 4140 nM | 81.8 nM | 130 nM | 
C[C@@H](/C=C/S(C)(=O)=O)NC(=O)c1cnc(C2CCCC2)nc1Oc1cc(F)cc(F)c1 [Example 116, (S,E)-2-cyclopentyl-4-(3,5-difluorophenoxy)-N-(4-(methylsulfonyl)but-3-en-2-yl)pyrimidine-5-carboxamide] | 1500 nM | 22300 nM | > 10000 nM | 2500 nM | 2200 nM | 
C[C@@H](/C=C/S(C)(=O)=O)NC(=O)c1cnc(C2CC2)nc1OC1CCCC1 [Example 144, (S,E)-4-(cyclopentyloxy)-2-cyclopropyl-N-(4-(methylsulfonyl)but-3-en-2-yl)pyrimidine-5-carboxamide] | 800 nM | 20000 nM | > 16000 nM | 693 nM | 1890 nM | 
C[C@@H](/C=C/S(C)(=O)=O)NC(=O)c1cnc(C(C)(C)C)nc1OC1CCCC1 [Example 153, (S,E)-2-(tert-butyl)-4-(cyclopentyloxy)-N-(4-(methylsulfonyl)but-3-en-2-yl)pyrimidine-5-carboxamide] | 160 nM | 1880 nM | > 10000 nM | 165 nM | 500 nM | 
C[C@@H](/C=C/S(C)(=O)=O)NC(=O)c1cnc(C(C)(C)C)nc1OC1CCCCC1 [Example 154, (S,E)-2-(tert-butyl)-4-(cyclohexyloxy)-N-(4-(methylsulfonyl)but-3-en-2-yl)pyrimidine-5-carboxamide] | 140 nM | 1330 nM | 8970 nM | 222 nM | 330 nM | 
C[C@@H](/C=C/S(C)(=O)=O)NC(=O)c1cc(C#N)c(C2CCCC2)nc1Oc1ccccc1 [Example 163, (S,E)-5-cyano-6-cyclopentyl-N-(4-(methylsulfonyl)but-3-en-2-yl)-2-phenoxynicotinamide] | 560 nM | 1760 nM | 3900 nM | 400 nM | 740 nM | 
C[C@@H](/C=C/S(C)(=O)=O)NC(=O)c1cnc(NC2CCCC2)nc1Oc1ccccc1 [Example 164, (S,E)-2-(cyclopentylamino)-N-(4-(methylsulfonyl)but-3-en-2-yl)-4-phenoxypyrimidine-5-carboxamide] | 21400 nM | > 100000 nM | > 10000 nM | 7100 nM | 12000 nM | 
CC(C)(C)c1ncc(C(=O)N2CC(=CS(C)(=O)=O)C2)c(Oc2ccccc2)n1 [Example 189, (2-(tert-butyl)-4-phenoxypyrimidin-5-yl)(3-((methylsulfonyl)methylene)azetidin-1-yl)methanone] | 100 nM | 640 nM | > 13800 nM | 102 nM |  | 241 nM
CS(=O)(=O)/C=C/[C@@H](NC(=O)c1cnc(C(F)(F)C2CC2)nc1Oc1ccccc1)C1CC1 [Example 224, (S,E)-N-(1-cyclopropyl-3-(methylsulfonyl)allyl)-2-(cyclopropyldifluoromethyl)-4-phenoxypyrimidine-5-carboxamide] | 8.75 nM | 93.2 nM | 13600 nM | 17 nM | 48.3 nM | 
CS(=O)(=O)/C=C/[C@@H](NC(=O)c1cnc(C(F)(F)C2CC2)nc1Oc1ccccc1)C1CCC1 [Example 225, (S,E)-N-(1-cyclobutyl-3-(methylsulfonyl)allyl)-2-(cyclopropyldifluoromethyl)-4-phenoxypyrimidine-5-carboxamide] | 16 nM | 119 nM | 18000 nM | 17 nM | 54.4 nM | 
N#CC=C1CN(C(=O)c2cnc(C3CC3)nc2Oc2ccccc2)C1 [Example 264, 2-(1-(2-cyclopropyl-4-phenoxypyrimidine-5-carbonyl)azetidin-3-ylidene)acetonitrile] | 6650 nM | 16300 nM | 8100 nM | 3800 nM |  | 2300 nM
C=C(C#N)CNC(=O)c1cnc(C(F)(F)C2CC2)nc1Oc1ccccc1 [Example 272, N-(2-cyanoallyl)-2-(cyclopropyldifluoromethyl)-4-phenoxypyrimidine-5-carboxamide] | 3960 nM | 8280 nM | 7800 nM | 210 nM |  | 380 nM
